The first experiment relates to S. aureus. The experiment can be described thus: S. aureus bacterial proliferation assay. The class given is cell-based. The settings on record: Staphylococcus aureus, read-out: S. aureus Proliferation EC50. As for the experimental part:
Evaluation of compounds for inhibition of bacterial cell proliferation.
Growth Media: S. aureus bacteria were grown in Brain Heart Infusion (BHI) broth/agar (Becton, Dickinson and Company). All liquid cultures were grown in BHI media supplemented with 25 mg/L Ca^2+ and 12.5 mg/L Mg^2+ to mimic free physiological concentrations of these cations. A 10 mg/mL Ca^2+ stock solution was prepared by dissolving 3.68 g of CaCl2·2H^2O in 100 mL of deionized water, and a 10 mg/mL Mg^2+ stock solution was prepared by dissolving 8.36 g of […] in 100 mL deionized water. Both stock solutions were filter-sterilized using 0.2 μm pore size cellulose-acetate filters. 2.5 mL of the sterile 10 mg/mL Ca^2+ stock and 1.25 mL of the sterile 10 mg/mL Mg^2+ stock solutions were added per 1 L of autoclaved BHI medium to obtain 25 mg/L Ca^2+ and 12.5 mg/L Mg^2+ ions, respectively.
General Assay Protocol: Stock bacterial cultures were streaked onto BHI agar plates and grown overnight at 37° C. Fresh aliquots of broth were inoculated with single bacterial colonies and the cultures were grown overnight at 37° C. with shaking (240 rpm) in cation adjusted BHI media. The following morning, the overnight cultures were sub-cultured (1:5 dilution) into fresh aliquots of cation adjusted BHI media and grown at 37° C. for 1-2 hours with shaking. After 2 h, cultures were diluted into fresh media to achieve final OD600 readings of 0.017. Aliquots of these diluted cultures (30 μL) were added to clear, flat-bottom, 384-well polystyrene plates that were stamped with 0.5 μL of test compounds in 20 μL media. Compounds were evaluated in dose-response format where the inhibitor concentration range during the proliferation assay was 100 μM to 46 nM (3-fold dilution series). Plates were sealed with “Breathe Easy” oxygen permeable membranes (Diversified Biotech) and left to incubate at 37° C. without shaking (stagnant assay). OD600 nm readings were taken generally at 6-8 h, when bacteria had reached log-phase growth. A second set of baseline control plates were prepared analogously, but without any bacteria added, to correct for possible compound absorbance and/or precipitation. Plates were then read at 600 nm using a Molecular Devices SpectraMax Plus384 microplate reader. EC50 values for the test compounds were obtained by plotting the OD600 results in GraphPad Prism and analyzing by non-linear regression using the log(inhibitor) vs. response (variable slope) equation. For results, see Tables 1, 2, and 3.
On to `Cc1cc(C(C#N)c2ccc(Cl)cc2)c(Cl)cc1NC(=O)c1cc(Cl)ccc1O` (stereo not shown) [Compound 58, 5-chloro-N-(5-chloro-4-((4-chlorophenyl)(cyano)methyl)-2-methylphenyl)-2-hydroxybenzamide], for which the EC50 is 140 nM.

For the compound `Cc1cc(C(C#N)c2ccc(Cl)cc2)c(Cl)cc1NC(=O)c1ccccc1O` (stereo not shown) [Compound 64, N-(5-chloro-4-((4-chlorophenyl)(cyano)methyl)-2-methylphenyl)-2-hydroxybenzamide], the EC50 turned out to be 280 nM.

The same experiment, now with this note: Staphylococcus aureus; Table 1; cation adjusted BHI media, OD600 at 6-8 h; read-out: S. aureus Proliferation EC50.
On to `Cc1cc(C(C#N)c2ccc(Cl)cc2)c(Cl)cc1NC(=O)c1cc(I)cc(I)c1O` (stereo not shown) [Closantel, reference compound], for which the EC50 turned out to be 480 nM.

Take `O=C(Nc1ccc(Sc2nc3ccccc3s2)c(Cl)c1)c1cc(Br)cc(Br)c1O` [Compound 1, reference compound]: the EC50 was found to be 300 nM.

The experiment is the same for the next values; noted with them: Staphylococcus aureus; Table 2; cation adjusted BHI media, OD600 at 6-8 h; read-out: S. aureus Proliferation EC50.
In the case of `Cc1cc(C(C#N)c2ccc(Cl)cc2)c(Cl)cc1NC(=O)c1cc(Br)cc(Br)c1O` (stereo not shown) [Compound 46, 3,5-dibromo-N-(5-chloro-4-((4-chlorophenyl)(cyano)methyl)-2-methylphenyl)-2-hydroxybenzamide], the EC50 was determined as 220 nM.

Consider `Cc1cc(C(C#N)c2ccc(Cl)cc2)c(Cl)cc1NC(=O)c1cccc(Br)c1O` (stereo not shown) [Compound 48, 3-bromo-N-(5-chloro-4-((4-chlorophenyl)(cyano)methyl)-2-methylphenyl)-2-hydroxybenzamide], for which the EC50 was found to be 580 nM.

On to `Cc1cc(C(C#N)c2ccc(Cl)cc2)c(Cl)cc1NC(=O)c1cc(Br)ccc1O` (stereo not shown) [Compound 50, 5-bromo-N-(5-chloro-4-((4-chlorophenyl)(cyano)methyl)-2-methylphenyl)-2-hydroxybenzamide], for which the EC50 came out at 110 nM. Still for that read-out and setting: as for `Cc1cc(C(C#N)c2ccc(Cl)cc2)c(Cl)cc1NC(=O)c1cc(Cl)cc(Cl)c1O` (stereo not shown) [Compound 52, 3,5-dichloro-N-(5-chloro-4-((4-chlorophenyl)(cyano)methyl)-2-methylphenyl)-2-hydroxybenzamide], the figure is 270 nM; as for `Cc1cc(C(C#N)c2ccc(Cl)cc2)c(Cl)cc1NC(=O)c1cccc(Cl)c1O` (stereo not shown) [Compound 54, 3-chloro-N-(5-chloro-4-((4-chlorophenyl)(cyano)methyl)-2-methylphenyl)-2-hydroxybenzamide], 560 nM. Still for that read-out and setting: for `Cc1cc(C(C#N)c2ccc(Cl)cc2)c(Cl)cc1NC(=O)c1ccc(Cl)cc1O` (stereo not shown) [Compound 56, 4-chloro-N-(5-chloro-4-((4-chlorophenyl)(cyano)methyl)-2-methylphenyl)-2-hydroxybenzamide] the value was 13 nM.

Still in this experiment, the particulars now being: Staphylococcus aureus; Table 3; cation adjusted BHI media, OD600 at 6-8 h; read-out: S. aureus Proliferation EC50.
For `COc1ccc(Cl)cc1C(=O)Nc1cc(Cl)c(C(C#N)c2ccc(Cl)cc2)cc1C` (stereo not shown) [Compound 57, 5-chloro-N-(5-chloro-4-((4-chlorophenyl)(cyano)methyl)-2-methylphenyl)-2-methoxybenzamide], the EC50 was > 100000 nM.

Still in this experiment, the particulars now being: Table 2; cation adjusted BHI media, OD600 at 6-8 h.
Take `COc1c(Br)cc(Br)cc1C(=O)Nc1cc(Cl)c(C(C#N)c2ccc(Cl)cc2)cc1C` (stereo not shown) [Compound 45, 3,5-dibromo-N-(5-chloro-4-((4-chlorophenyl)(cyano)methyl)-2-methylphenyl)-2-methoxybenzamide]: the S. aureus Proliferation EC50 was > 100000 nM. For the compound `COc1c(Br)cccc1C(=O)Nc1cc(Cl)c(C(C#N)c2ccc(Cl)cc2)cc1C` (stereo not shown) [Compound 47, 3-bromo-N-(5-chloro-4-((4-chlorophenyl)(cyano)methyl)-2-methylphenyl)-2-methoxybenzamide], the S. aureus Proliferation EC50 is > 100000 nM. Same read-out and setting: for `COc1ccc(Br)cc1C(=O)Nc1cc(Cl)c(C(C#N)c2ccc(Cl)cc2)cc1C` (stereo not shown) [Compound 49, 5-bromo-N-(5-chloro-4-((4-chlorophenyl)(cyano)methyl)-2-methylphenyl)-2-methoxybenzamide] the value was > 100000 nM. In the case of `COc1c(Cl)cc(Cl)cc1C(=O)Nc1cc(Cl)c(C(C#N)c2ccc(Cl)cc2)cc1C` (stereo not shown) [Compound 51, 3,5-dichloro-N-(5-chloro-4-((4-chlorophenyl)(cyano)methyl)-2-methylphenyl)-2-methoxybenzamide], the S. aureus Proliferation EC50 is > 100000 nM.

Consider `COc1c(Cl)cccc1C(=O)Nc1cc(Cl)c(C(C#N)c2ccc(Cl)cc2)cc1C` (stereo not shown) [Compound 53, 3-chloro-N-(5-chloro-4-((4-chlorophenyl)(cyano)methyl)-2-methylphenyl)-2-methoxybenzamide], for which the S. aureus Proliferation EC50 is > 100000 nM.

`COc1cc(Cl)ccc1C(=O)Nc1cc(Cl)c(C(C#N)c2ccc(Cl)cc2)cc1C` (stereo not shown) [Compound 55, 4-chloro-N-(5-chloro-4-((4-chlorophenyl)(cyano)methyl)-2-methylphenyl)-2-methoxybenzamide]: the S. aureus Proliferation EC50 was > 100000 nM. For the compound `COc1ccc(Cl)cc1C(=O)Nc1cc(Cl)c(C(C#N)c2ccc(Cl)cc2)cc1C` (stereo not shown) [Compound 57, 5-chloro-N-(5-chloro-4-((4-chlorophenyl)(cyano)methyl)-2-methylphenyl)-2-methoxybenzamide], the S. aureus Proliferation EC50 is > 100000 nM.

Regarding `COc1ccc(C)cc1C(=O)Nc1cc(Cl)c(C(C#N)c2ccc(Cl)cc2)cc1C` (stereo not shown) [Compound 59, N-(5-chloro-4-((4-chlorophenyl)(cyano)methyl)-2-methylphenyl)-2-methoxy-5-methylbenzamide], the S. aureus Proliferation EC50 was > 100000 nM. Take `Cc1ccc(O)c(C(=O)Nc2cc(Cl)c(C(C#N)c3ccc(Cl)cc3)cc2C)c1` (stereo not shown) [Compound 60, N-(5-chloro-4-((4-chlorophenyl)(cyano)methyl)-2-methylphenyl)-2-hydroxy-5-methylbenzamide]: the S. aureus Proliferation EC50 was found to be 1300 nM. The same measure, in the same setting: as for `COc1ccccc1C(=O)Nc1cc(Cl)c(C(C#N)c2ccc(Cl)cc2)cc1C` (stereo not shown) [Compound 61, N-(5-chloro-4-((4-chlorophenyl)(cyano)methyl)-2-methylphenyl)-2-methoxybenzamide], the figure is > 100000 nM; as for `COc1cccc(C(=O)Nc2cc(Cl)c(C(C#N)c3ccc(Cl)cc3)cc2C)c1` (stereo not shown) [Compound 62, N-(5-chloro-4-((4-chlorophenyl)(cyano)methyl)-2-methylphenyl)-3-methoxybenzamide], > 100000 nM. Same read-out and setting: for `COc1ccc(C(=O)Nc2cc(Cl)c(C(C#N)c3ccc(Cl)cc3)cc2C)cc1` (stereo not shown) [Compound 63, N-(5-chloro-4-((4-chlorophenyl)(cyano)methyl)-2-methylphenyl)-4-methoxybenzamide] the value was > 100000 nM. The same measure, in the same setting: for `Cc1cc(C(C#N)c2ccc(Cl)cc2)c(Cl)cc1NC(=O)c1cccc(O)c1` (stereo not shown) [Compound 65, N-(5-chloro-4-((4-chlorophenyl)(cyano)methyl)-2-methylphenyl)-3-hydroxybenzamide] the value was 1800 nM. For `Cc1cc(C(C#N)c2ccc(Cl)cc2)c(Cl)cc1NC(=O)c1ccc(O)cc1` (stereo not shown) [Compound 66, N-(5-chloro-4-((4-chlorophenyl)(cyano)methyl)-2-methylphenyl)-4-hydroxybenzamide], the S. aureus Proliferation EC50 turned out to be 4900 nM. Still for that read-out and setting: as for `Cc1cc(C(C#N)c2ccc(Cl)cc2)c(Cl)cc1NC(=O)c1ccccc1[N+](=O)[O-]` (stereo not shown) [Compound 67, N-(5-chloro-4-((4-chlorophenyl)(cyano)methyl)-2-methylphenyl)-2-nitrobenzamide], the figure is > 100000 nM.

`Cc1cc(C(C#N)c2ccc(Cl)cc2)c(Cl)cc1NC(=O)c1cccc([N+](=O)[O-])c1` (stereo not shown) [Compound 68, N-(5-chloro-4-((4-chlorophenyl)(cyano)methyl)-2-methylphenyl)-3-nitrobenzamide]: the S. aureus Proliferation EC50 is > 100000 nM. The same measure, in the same setting: for `Cc1cc(C(C#N)c2ccc(Cl)cc2)c(Cl)cc1NC(=O)c1ccc([N+](=O)[O-])cc1` (stereo not shown) [Compound 69, N-(5-chloro-4-((4-chlorophenyl)(cyano)methyl)-2-methylphenyl)-4-nitrobenzamide] the value was > 100000 nM; for `Cc1cc(C(C#N)c2ccc(Cl)cc2)c(Cl)cc1NC(=O)c1ccccc1N` (stereo not shown) [Compound 70, 2-amino-N-(5-chloro-4-((4-chlorophenyl)(cyano)methyl)-2-methylphenyl)benzamide], > 100000 nM; for `Cc1cc(C(C#N)c2ccc(Cl)cc2)c(Cl)cc1NC(=O)c1cccc(N)c1` (stereo not shown) [Compound 71, 3-amino-N-(5-chloro-4-((4-chlorophenyl)(cyano)methyl)-2-methylphenyl)benzamide], > 100000 nM. Same read-out and setting: as for `Cc1cc(C(C#N)c2ccc(Cl)cc2)c(Cl)cc1NC(=O)c1ccc(N)cc1` (stereo not shown) [Compound 72, 4-amino-N-(5-chloro-4-((4-chlorophenyl)(cyano)methyl)-2-methylphenyl)benzamide], the figure is > 100000 nM.

Source of the values: patent US20230406831A1, “COMPOUNDS AND METHODS OF INHIBITING BACTERIAL CHAPERONIN SYSTEMS” (THE TRUSTEES OF INDIANA UNIVERSITY, priority 2020, published 2023).
